Data: patent US20080280953A1, “Agents Used for the Treatment of Seeds” (Bayer Cropscience AG, priority 2004, published 2008)

Key:
Type in all cases: in vivo
[1] = tested on: white fly (Bemisia tabaci), normal sensitive strain; assay: Bemisia tabaci test (normal sensitive strain), spraying of infested cotton plants; details: 100 ppm, spray on cotton plants
Method: (§1) To prepare a suitable active compound preparation 1 part by weight of the active compound is mixed with the given amount of solvent and emulsifier and the concentrate is diluted to the desired concentration with water containing emulsifier.
Cotton plants (Gossypium hirsutum) that are infested with eggs, larvae and pupae of the white fly (Bemisia tabaci) are treated by, spraying with the active compound preparation at the desired concentration.
(§2) After the desired time the death rate in % is determined. Here 100% means that all animals were killed; 0% means that no animals were killed.

[2] = tested on: white fly (Bemisia tabaci, resistant strain); assay: Bemisia tabaci test (resistant strain), cotton leaf dip; details: 1000 ppm
Method: as §1
Leaf sections of the cotton plant (Gossypium hirsutum) are treated by dipping in the active compound preparation at the desired concentration and after drying of the coating are infected with adults of the white fly (Bemisia tabaci, resistant strain).
as §2

[3] = tested on: cotton aphid (Aphis gossypii); assay: Aphis gossypii test (soil application); details: 4 ppm in soil, cotton plant
Method: (§3) To prepare a suitable active compound preparation 1 part by weight of the active compound is mixed with the given amount of solvent and emulsifier and the concentrate is diluted to the desired concentration with water.
The active compound mixture was mixed with soil. The concentration given refers to amount of active compound per volume unit of soil (mg/l=ppm). Pots are filled with the treated earth and planted with a cotton plant (Gossypium hirsutum). After one week the plants are infected with the cotton aphid (Aphis gossypii).
(§4) After the desired time the death rate in % is determined. Here 100% means that all aphids were killed; 0% means that no aphids were killed.

[4] = tested on: larvae of the corn root worm (Diabrotica balteata); assay: Diabrotica balteata larvae test (soil application); details: 8 ppm in soil, maize
Method: as §3
The active compound mixture was mixed with soil. The concentration given refers to amount of active compound per volume unit of earth (mg/l=ppm). Pots are filled with the treated earth and planted with 5 maize seeds per pot. 3 days after seeding larvae of the corn root worm (Diabrotica balteata) were placed in the treated soil.
After the desired time the death rate in % is determined. The level of activity is determined by the number of emerging plants

[5] = tested on: adult Ctenocephalides felis, strain "Georgi"; assay: Test with cat fleas/oral administration; details: 100 ppm in citrated bovine blood
Method: To prepare a suitable formulation a suitable active compound solution was prepared from 10 mg active compound with 0.5 ml DMSO. 10 μl of this formulation was added to 2 ml citrated bovine blood and stirred.
20 fasting adult fleas (Ctenocephalides felis, strain “Georgi”) were placed in a chamber (Ø5 cm) that is closed with cheese cloth at the top and bottom. A metal cylinder the underside of which is closed with Parafilm is placed on the chamber. The cylinder contains the 2 ml blood-active compound formulation which can be consumed by the fleas through the Parafilm membrane.
Whilst the blood is warmed to 37° C. the region of the flea chamber is at room temperature. Controls were carried out with the same volume of DMSO without compound addition.
After the desired time the death rate in % is determined. Here 100% means that all fleas were killed; 0% means that no fleas were killed.

[6] = tested on: adult Musca domestica, strain WHO(N), sensitive; assay: Test with flies; details: 100 ppm; after 48 hours
Method: 10 mg of the active compound are dissolved in 0.5 ml dimethylsulphoxide, lower concentrations are prepared by dilution with water.
0.2 ml of this active compound preparation is pipetted onto a sponge (ca. Ø1.5 cm) that has been wetted with 0.8 ml sugar solution. The sponge and 10 test animals are transferred to a dish (4×4 cm, h 2 cm) and covered.
After 48 hours the activity of the active compound preparation is determined. Here 100% means that all flies were killed; 0% means that no flies were killed.

[7] = tested on: codling moth larvae (Cydia pomonella); assay: Cydia pomonella test, treated feed; details: 20 ppm in feed
Method: as §3
The active compound preparation was mixed with feed. The concentration given relates to the amount of active compound per unit volume feed (mg/l=ppm). The treated feed is placed in Petri dishes and infected with codling moth larvae (Cydia pomonella).
After the desired time the death rate in % is determined. Here 100% means that all larvae were killed; 0% means that no larvae were killed.

[8] = tested on: caterpillars of the fall army worm (Spodoptera frugiperda); assay: Spodoptera frugiperda test, treated soil (Example A1); details: 4 ppm in soil, cotton plant
Method: as §3
The active compound preparation is mixed with earth. The concentration given relates to the amount of active compound per unit volume soil (mg/l=ppm). The treated earth is filled into pots and planted with a cotton plant (Gossypium hirsutum). After a week infection is carried out with caterpillars of the fall army worm (Spodoptera frugiperda).
After the desired time the activity in % is determined. Here 100% means that no eating damage is visible, 0% means that eating damage on the treated plants corresponds to that of the controls.

[9] = tested on: horse chestnut scale (Pulvinaria regalis); assay: Pulvinaria regalis test, preparation poured onto chestnut trees (Example C1); details: 10 mg per plant, poured on
Method: as §3
The active compound preparation was poured onto chestnut trees (Castanea vesca). The concentration given relates to the amount of active compound per plant. After a defined time infection was carried out with horse chestnut scale (Pulvinaria regalis).
as §2

[10] = tested on: termites (Odontotermes sp.); assay: Odontotermes test, open land (spray treatment); details: 240 g/ha, spray on obeche wood
Method: (§5) To prepare a suitable active compound preparation 1 part by weight of the active compound is mixed with the given amount of water to the desired concentration.
Areas of wood of the obeche tree (Triplochiton scleroxylon) are treated by spraying with the active compound preparation at the desired concentration and infected with termites (Odontotermes sp.).
After the desired time the activity in % is determined. Here 100% means that the wood was not infested by termites; 0% means that the wood was infested by termites.

[11] = tested on: adults of the green stink bug (Piezodorus guildingi); assay: Piezodorus guildingi test, open land (spray treatment); details: 300 g/ha, soy bean plants
Method: as §5
Soy bean plants (Glycine max) infested with the adults of the green stink bug (Piezodorus guildingi) are treated with an active compound preparation at the desired concentration.
After the desired time the death rate in % is determined. Here 100% means that all bugs were killed; 0% means that no bugs were killed.

[12] = tested on: brown plant hopper (Nilaparvata lugens); assay: Nilaparvata lugens test, open land (spray treatment); details: 300 g/ha, spray on rice plants
Method: as §5
Rice plants (Oryza sativa) that are infested with all stages of the brown plant hopper (Nilaparvata lugens) are sprayed with an active compound preparation at the desired concentration.
After the desired time the death rate in % is determined. Here 100% means that all plant hoppers were killed; 0% means that no plant hoppers were killed.

[13] = tested on: mealy cabbage aphid (Brevicoryne brassicae); assay: Brevicoryne brassicae test, open land (drench application); details: 0.04 g/plant, drench on cabbage plants
Method: as §5
Cabbage plants (Brassica oleracea) that are infested with all stages of the mealy cabbage aphid (Brevicoryne brassicae) are drenched with an active compound preparation at the desired concentration.
as §4

[14] = tested on: black bean aphid (Aphis fabae); assay: Aphis fabae test (seed application), Example D1; details: 90 g per unit (100,000 seeds), sugar beet seed
Method: as §3
Sugar beet seed (Beta vulgaris) is treated with the active compound preparation and sown into the earth. After ca. 4 weeks the beet plants are infected with the black bean aphid (Aphis fabae).
as §4

Row | Compound | Death rate in % after 14 d [1] | Death rate in % after 3 d [2] | Activity in % after 7 d [3] | Activity in % after 4 d [4] | death rate after 2 days [5] | activity [6] | death rate after 7 days [7] | activity (eating damage) after 7 days [8] | death rate after 30 days [9] | activity after 45 days ([10]; after 45 days) | death rate after 11 days [11] | death rate after 14 days [12] | death rate after 35 days [13] | death rate after 7 days [14] | activity after 65 days ([10]; after 65 days)
1 | CN(Cc1ccc(Cl)nc1)C1=CC(=O)OC1 [Compound 84] | 100% | 78% | 100% | 100% | 100% | 80% | 100% | 98% | 100% | 99% | 100% | 91% | 100% | – | –
2 | O=C1C=C(N(Cc2ccc(Cl)nc2)C2CC2)CO1 [Compound 88] | – | – | 100% | 90% | – | – | 90% | – | – | – | – | 99% | 97% | 100% | 95%
